From patent US20060217418A1, “Substituted alkyl amido piperidines” (priority 2001, published 2006)

Experiments:
Sprague Dawley rats = test: Continuous Slow Transvesicular Infusion (CSTI) rat model; assay type: in vivo; set-up: key: F: Produced an increase in bladder capacity in rats relative to baseline capacity; settings: intragastric administration, bladder capacity relative to baseline capacity
Protocol: Male Sprague Dawley rats weighing approximately 300 g were used for the study. Rats were anaesthetized with pentobarbitone sodium (50 mg/kg, i.p). Through a median abdominal incision, bladder was exposed and a polyethylene cannula (PE 50) was introduced into the bladder through a small cut on the dome of the bladder and the cannula was secured with a purse string suture. The other end of the cannula was exteriorized subcutaneously at the dorsal neck area. Similarly, another cannula (PE 50) was introduced into the stomach through a paramedian abdominal incision with the free end exteriorized subcutaneously to the neck region. The surgical wounds were closed with silk 4-0 suture and the animal was allowed to recover with appropriate post surgical care. On the following day, the animal was placed in a rat restrainer. The open end of the bladder-cannula was connected to a pressure transducer as well as infusion pump through a three-way stopcock. The bladder voiding cycles were initiated by continuous infusion of normal saline at the rate of 100 μl/min. The repetitive voiding contractions were recorded on a Power Lab on-line data acquisition software. After recording the basal voiding pattern for an hour, the test drug or vehicle was administered directly into stomach through the intragastric catheter and the voiding cycles were monitored for 5 hours. Micturition pressure and frequency were calculated before and after the treatment (at every 30 min interval) for each animal. Bladder capacity was calculated from the micturition frequency, based on the constant infusion of 100 μl/min. The effect of the test drug was expressed as a percentage of basal, pre-drug bladder capacity. WAY 100635 was used as positive control for comparison.

rat MCH1 receptor = target: T1, rat MCH1 receptor (Rattus norvegicus, UniProt P97639); test: Radioligand binding assay at cloned rat MCH1 receptor ([3H]Compound A); settings: cloned rat MCH1, Peakr293 cell membranes, 0.08 nM [3H]Compound A, 25° C., 90 minutes; read-out: Ki(MCH-1)
T1 construct: operatively linked to DNA encoding the rat MCH1 receptor so as to permit expression thereof; expressed in transfected cells; host or cells: Human embryonic kidney Peak rapid 293 (Peakr293) cells, transient calcium phosphate transfection, membranes
T1 sequence (P97639 whole entry): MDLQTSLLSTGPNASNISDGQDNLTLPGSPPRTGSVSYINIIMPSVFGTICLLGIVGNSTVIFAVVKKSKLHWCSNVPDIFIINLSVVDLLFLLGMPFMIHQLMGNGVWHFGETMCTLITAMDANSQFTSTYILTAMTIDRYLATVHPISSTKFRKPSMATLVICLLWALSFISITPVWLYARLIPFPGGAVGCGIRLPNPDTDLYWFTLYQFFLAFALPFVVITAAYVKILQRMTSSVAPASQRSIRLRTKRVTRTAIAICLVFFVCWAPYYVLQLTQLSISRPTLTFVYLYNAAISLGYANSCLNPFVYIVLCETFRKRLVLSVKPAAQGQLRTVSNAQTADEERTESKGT

[1] = in vivo; cited from earlier work

| Ki (rat MCH1 receptor) [nM] | Compound | CSTI (Sprague Dawley rats) | food intake induced by the intracerebroventricular application of MCH [1] |
| --- | --- | --- | --- |
| 1.3 | CC(C)C(=O)Nc1cccc(C2CCN(CCCNC(=O)C(c3ccc(F)cc3)c3ccc(F)cc3)CC2)c1 [Example 1, N-{3-[1-(3-{[BIS(4-FLUOROPHENYL)ACETYL]AMINO}PROPYL)-4-PIPERIDINYL] PHENYL}-2-METHYLPROPANAMIDE] | F | – |
| 2.5 | CC(=O)Nc1cccc(C2CCN(CCCNC(=O)C(c3ccccc3)c3ccccc3)CC2)c1 [Example 3, N-(3-{4-[3-(acetylamino)phenyl]-piperidinyl}propyl)-2,2-diphenylacetamide] | F | – |
| 2.3 | CC(C)C(=O)Nc1cccc(C2CCN(CCCNC(=O)C(c3ccc(F)cc3)c3ccc(F)cc3)CC2)n1 [Example 29] | F | – |
| – | CN(C)CC1CCc2cc(NC(=O)c3ccc(-c4ccc(F)cc4)cc3)ccc2C1 (stereo not drawn) [Example T-226296] | – | inhibit food intake |
| 11.7 | CC(C)C(=O)Nc1cccc(C2CCN(CCCNC(=O)C(C)(C)c3ccc(Cl)cc3)CC2)c1 [Example 8, 2-(4-CHLOROPHENYL)-N-(3-{4-[3-(ISOBUTYRYLAMINO)PHENYL]-1-PIPERIDINYL} PROPYL)-2-METHYLPROPANAMIDE] | F | – |
| 18.6 | O=C(Nc1cccc(C2CCN(CCCNC(=O)C3(c4ccc(F)cc4Cl)CCCC3)CC2)c1)C1CC1 [Example 119, 1-(2-CHLORO-4-FLUOROPHENYL)-N-[3-(4-{3-[(CYCLOPROPYLCARBONYL)AMINO] PHENYL}-1-PIPERIDINYL)PROPYL]CYCLOPENTANECARBOXAMIDE] | – | – |
| 5.7 | Cc1ccc(NC(=O)C(C)C)cc1C1CCN(CCCNC(=O)[C@@H](C)c2ccc(Cl)cc2)CC1 [Example 166, (2S)-2-(4-chlorophenyl)-N-(3-{4-[5-(isobutyrylamino)-2-methylphenyl]-1-piperidinyl}propyl) propanamide] | – | – |
| 83 | CCC(=O)Nc1cccc(C2CCN(CCCNC(=O)C(Br)c3ccccc3)CC2)c1 (stereo not drawn) [Example 10, N-[3-(1-{3-[(2-BROMO-2-PHENYLACETYL)AMINO]PROPYL}-4-PIPERIDINYL) PHENYL]PROPANAMIDE] | – | – |
| 11.8 | CC(C)C(=O)Nc1cc(C2CCN(CCCNC(=O)C(C)(c3ccccc3)c3ccccc3)CC2)ccc1F [Example 51] | – | – |
| 2.6 | CC(C)C(=O)Nc1ccc(F)c(C2CCN(CCCNC(=O)C3(c4ccc(Cl)cc4)CCCCC3)CC2)c1 [Example 130] | – | – |
| 30.7 | CCCC(=O)Nc1cccc(C2CCN(CCCNC(=O)C(C)c3ccc(Cl)cc3)CC2)c1 (stereo not drawn) [Example 77, N-{3-[1-(3-{[2-(4-CHLOROPHENYL)PROPANOYL]AMINO}PROPYL)-4-PIPERIDINYL] PHENYL}BUTANAMIDE] | – | – |
| 6.2 | CC(C)OC(=O)Nc1cccc(C2CCN(CCCNC(=O)C(c3ccc(F)cc3)c3ccc(F)cc3)CC2)c1 [Example 146, ISOPROPYL 3-[1-(3-{[BIS(4-FLUOROPHENYL)ACETYL]AMINO}PROPYL)-4-PIPERIDINYL]PHENYLCARBAMATE] | – | – |
| 39.9 | Cc1ccc(NC(=O)C(C)C)cc1C1CCN(CCCNC(=O)C(F)(F)c2ccccc2)CC1 [Example 124] | – | – |
| 5.3 | CC(C)C(=O)Nc1cccc(C2CCN(CCCNC(=O)C(C)(c3ccccc3)c3ccccc3)CC2)c1 [Example 30] | – | – |
| 4.7 | CC(=O)Nc1cccc(C2CCN(CCCNC(=O)C3(c4ccc(Cl)cc4)CCCCC3)CC2)c1 [Example 75, N-(3-{4-[3-(ACETYLAMINO)PHENYL]-1-PIPERIDINYL}PROPYL)-1-(4-CHLOROPHENYL) CYCLOHEXANECARBOXAMIDE] | – | – |
| 0.4 | CC(C)C(=O)Nc1ccc(F)c(C2CCN(CCCNC(=O)C(c3ccc(F)cc3)c3ccc(F)cc3)CC2)c1 [Example 35, N-{3-[1-(3-{[bis(4-fluorophenyl)acetyl]amino}propyl)-4-piperidinyl]-4-fluorophenyl}-2-methylpropanamide] | F | – |
| 10.3 | CC(C)C(=O)Nc1cccc(C2CCN(CCCNC(=O)C(C)(c3ccccc3)c3ccccc3)CC2)n1 [Example 83] | – | – |
| 7.9 | CCCC(=O)Nc1cccc(C2CCN(CCCNC(=O)C3(c4ccc(Cl)cc4)CCCC3)CC2)c1 [Example 102, N-(3-{4-[3-(BUTYRYLAMINO)PHENYL]-1-PIPERIDINYL}PROPYL)-1-(4-CHLOROPHENYL) CYCLOPENTANECARBOXAMIDE] | – | – |
| 62 | O=C(CC(c1ccccc1)c1ccccc1)NCCCN1CCC(c2cccc(NC(=O)C3CC3)c2)CC1 [Example 151, N-[3-(1-{3-[(3,3-DIPHENYLPROPANOYL)AMINO]PROPYL}-4-PIPERIDINYL)PHENYL] CYCLOPROPANECARBOXAMIDE] | – | – |
| 20 | CC[C@H](C(=O)NCCCN1CCC(c2cc(NC(=O)C(C)C)ccc2C)CC1)c1ccccc1 [Example 163, (2S)-N-(3-{4-[5-(isobutyrylamino)-2-methylphenyl]-1-piperidinyl}propyl)-2-phenylbutanamide] | – | – |
| 20.3 | Cc1ccc(NC(=O)C(C)C)cc1C1CCN(CCCNC(=O)C(O)c2ccc(F)c(F)c2)CC1 (stereo not drawn) [Example 153, N-{3-[1-(3-{[(3,4-difluorophenyl)(hydroxy)acetyl]amino}propyl)-4-piperdinyl]-4-methylphenyl}-2-methylpropanamide] | – | – |
| 2.8 | CC(C)C(=O)Nc1cc(C2CCN(CCCNC(=O)C(c3ccc(F)cc3)c3ccc(F)cc3)CC2)ccc1F [Example 48, N-{5-[1-(3-{[BIS(4-FLUOROPHENYL)ACETYL]AMINO}PROPYL)-4-PIPERIDINYL]-2-FLUORO PHENYL}2-METHYLPROPANAMIDE] | – | – |
| 5.9 | CC(C)C(=O)Nc1ccc(F)c(C2CCN(CCCNC(=O)C3(c4ccc(F)cc4Cl)CCCCC3)CC2)c1 [Example 133, 1-(2-CHLORO-4-FLUOROPHENYL)-N-(3-{4-[2-FLUORO-5-(ISOBUTYRYLAMINO) PHENYL]-1-PIPERIDINYL}PROPYL)CYCLO HEXANECARBOXAMIDE] | – | – |
| 41.3 | CCC(=O)Nc1cccc(C2CCN(CCCNC(=O)C3(c4ccc(F)cc4)CCCC3)CC2)c1 [Example 60] | – | – |
| 23 | CC(C)C(=O)Nc1cccc(C2CCN(CCCNC(=O)C(C)(C)c3ccc(Cl)cc3)CC2)n1 [Example 88] | – | – |
| 4.3 | CCCC(=O)Nc1cccc(C2CCN(CCCNC(=O)C(C)(c3ccccc3)c3ccccc3)CC2)c1 [Example 98, N-[3-(1-{3-[(2,2-DIPHENYLPROPANOYL)AMINO]PROPYL}-4-PIPERIDINYL)PHENYL] BUTANAMIDE] | – | – |
| 0.6 | Cc1ccc(NC(=O)C(C)C)cc1C1CCN(CCCNC(=O)C(c2ccc(F)cc2)c2ccc(F)cc2)CC1 [Example 32] | F | – |

| Compound | Ki (rat MCH1 receptor) [nM] | CSTI (Sprague Dawley rats) | food intake induced by the intracerebroventricular application of MCH [1] |
| --- | --- | --- | --- |
| CC(C)C(=O)Nc1cccc(C2CCN(CCCNC(=O)C(c3ccccc3)c3ccccc3)CC2)n1 [Example 6] | 5.6 | F | – |
| CC(C)C(=O)Nc1ccc(F)c(C2CCN(CCCNC(=O)C(c3ccccc3)c3ccccc3)CC2)c1 [Example 24] | 4.7 | F | – |
| Cc1ccc(NC(=O)C(C)C)cc1C1CCN(CCCNC(=O)C(c2ccccc2)c2ccccc2)CC1 [Example 4] | 2.5 | F | – |
